From US20230139445A1, “BACTERIAL CELLS WITH IMPROVED TOLERANCE TO DIACIDS” (priority 2016, published 2023)

Key:
[1] = system: Escherichia coli K-12 MG1655 evolved isolates and knockout mutants; experiment: Biolector growth screening of evolved isolates and reconstructed (knockout) mutants in glutaric or adipic acid; format: cell-based
Method: Biological triplicate cultures of each strain were grown to saturation overnight in 96 well deepwell plates containing 300 μL M9+1% glucose. The next day, cells were diluted 1:10 in deionized water in a clear 96 well plate and the OD600 was measured on a BioTek plate reader. 48 well FlowerPlates containing a final volume of 1.4 mL of M9+1/o glucose (plus relevant chemical) were inoculated to OD600 0.03 (with plate reader pathlength, 200 μL volume) with the overnight culture and sealed with Breathseal film. Light backscatter intensity was monitored in a Biolector microbioreactor system at 37° C. with 1000 rpm shaking.
Each re-sequenced isolate was characterized using the Biolector system for growth at the screening concentration of chemical (47.5 g/L glutaric acid or 50 g/L adipic acid) in biological triplicates.

[2] = system: Escherichia coli K-12 MG1655 knockout mutants; experiment: Growth Profiler growth screening of K-12 MG1655 single, double and triple knockout mutants in glutaric or adipic acid; format: cell-based; details: M9 + 47.5 g/L glutarate (neutralized)
Method: Five colonies from wild-type K-12 MG1655 and 10 individual colonies deriving from each population were inoculated into 300 μL M9+1% glucose in 96 well deepwell plates and incubated in a 300 rpm plate shaker at 37° C. The next day, cells were diluted 10× in M9+1% glucose and 30 μL was transferred into clear-bottomed 96 well half-deepwell plates (with rectangular wells) containing M9+1% glucose and M9+1% glucose+52.78 g/L glutaric acid or 55.56 g/L adipic acid, such that the final concentration of glutaric acid or adipic acid was 47.5 g/L or 50 g/L, respectively. In addition, cryogenic glycerol stocks of the overnight culture were saved in a 96 well plate format. Half deepwell plates were incubated at 37° C. with 225 rpm shaking in a Growth Profiler (Enzyscreen), with optical scans of the plates taken at 15 minute intervals. Green pixel values integrated over a 1 mm diameter circular area in each well were converted to OD600 values using a previously determined calibration between OD600 and green pixel values. […] In general, it was attempted to select three isolates per population for further analysis, and all populations were represented in the resequenced isolates.
Selected isolates from the primary screen were restruck onto LB agar from the cryogenic stock made from the overnight culture plate for the primary screen. Five K-12 MG1655 colonies and three individual colonies from each isolate were inoculated as biological replicates into a new 96 well deepwell plate containing 300 μL of M9+1% glucose, and grown overnight as for the primary screen. The next day, a cryogenic stock and half deepwell plates containing M9+1% glucose with or without glutaric acid or adipic acid were inoculated using the plate of overnight cultures, and growth was measured as described for the primary screen.
Probable important losses-of-function were determined by identifying genes across all isolates that harboured mutations, especially those occurring in multiple populations, and by the presence of at least one mutation that either generated a premature stop codon, a frameshift mutation, or the presence of an insertion element sequence within the gene. For those genes, the corresponding knockout strain from the Keio collection of single knockout mutants (where each gene is replaced with a cassette consisting of a kanamycin resistance gene flanked by FRT sites) was used as a donor strain for P1vir phage transduction. Briefly, the Keio strain was grown to early exponential phase in LB+5 mM CaCl2 and 80 μL of a P1vir stock raised on K-12 MG1655 was added. After significant lysis was observed after 1.5 to 2 hours, the lysate was filter-sterilized to remove cells and stored at 4° C. Strain K-12 MG1655 was grown overnight in LB+5 mM CaCl2) and 100 μL of the overnight culture was mixed with 100 μL of the P1vir lysate of the Keio collection mutant, and the mixture was incubated at 37° C. without shaking for 20 minutes. The entire mixture was then plated on LB agar containing 1.25 mM sodium pyrophosphate as a chelating agent and 25 μg/mL kanamycin. One colony was then restruck on LB+1.25 mM […]+25 μg/mL kanamycin plate and analyzed for presence of the Keio cassette in place of the wild-type gene by colony PCR. When further knockouts were constructed in the same strain, the Keio cassette was flipped out to generate a scar sequence such that Kan^R marker could be recycled. […]

[3] = strain GLUT1-3, M9 + 47.5 g/L glutaric acid (neutralized with sodium hydroxide)
[4] = strain GLUT1-3, M9 + 47.5 g/L glutaric acid (neutralized), knockout experiment (Table 14)
[5] = strain GLUT1-9, M9 + 47.5 g/L glutaric acid (neutralized with sodium hydroxide)
[6] = strain GLUT1-10, M9 + 47.5 g/L glutaric acid (neutralized with sodium hydroxide)
[7] = strain GLUT1-10, M9 + 47.5 g/L glutaric acid (neutralized), knockout experiment (Table 14)
[8] = strain GLUT2-1, M9 + 47.5 g/L glutaric acid (neutralized with sodium hydroxide)
[9] = strain GLUT2-9, M9 + 47.5 g/L glutaric acid (neutralized with sodium hydroxide)
[10] = strain GLUT2-10, M9 + 47.5 g/L glutaric acid (neutralized with sodium hydroxide)
[11] = strain GLUT3-5, M9 + 47.5 g/L glutaric acid (neutralized with sodium hydroxide)
[12] = strain GLUT3-7, M9 + 47.5 g/L glutaric acid (neutralized with sodium hydroxide)
[13] = strain GLUT3-9, M9 + 47.5 g/L glutaric acid (neutralized with sodium hydroxide)
[14] = strain GLUT4-1, M9 + 47.5 g/L glutaric acid (neutralized with sodium hydroxide)
[15] = strain GLUT4-1, M9 + 47.5 g/L glutaric acid (neutralized), knockout experiment (Table 14)
[16] = strain GLUT4-4, M9 + 47.5 g/L glutaric acid (neutralized with sodium hydroxide)
[17] = strain GLUT4-10, M9 + 47.5 g/L glutaric acid (neutralized with sodium hydroxide)
[18] = strain GLUT5-4, M9 + 47.5 g/L glutaric acid (neutralized with sodium hydroxide)
[19] = strain GLUT5-5, M9 + 47.5 g/L glutaric acid (neutralized with sodium hydroxide)
[20] = strain GLUT6-4, M9 + 47.5 g/L glutaric acid (neutralized with sodium hydroxide)
[21] = strain GLUT6-5, M9 + 47.5 g/L glutaric acid (neutralized with sodium hydroxide)
[22] = strain GLUT6-10, M9 + 47.5 g/L glutaric acid (neutralized with sodium hydroxide)
[23] = strain GLUT7-2, M9 + 47.5 g/L glutaric acid (neutralized with sodium hydroxide)
[24] = strain GLUT7-6, M9 + 47.5 g/L glutaric acid (neutralized with sodium hydroxide)
[25] = strain GLUT7-7, M9 + 47.5 g/L glutaric acid (neutralized with sodium hydroxide)
[26] = strain GLUT8-5, M9 + 47.5 g/L glutaric acid (neutralized with sodium hydroxide)
[27] = strain GLUT8-6, M9 + 47.5 g/L glutaric acid (neutralized with sodium hydroxide)
[28] = strain GLUT8-6, M9 + 47.5 g/L glutaric acid (neutralized), knockout experiment (Table 14)
[29] = strain GLUT8-9, M9 + 47.5 g/L glutaric acid (neutralized with sodium hydroxide)
[30] = strain MG1655, M9 + 47.5 g/L glutaric acid (neutralized with sodium hydroxide)
[31] = strain MG1655, M9 + 47.5 g/L glutaric acid (neutralized), knockout experiment (Table 14)
[32] = strain MG1655 kgtP::kan, M9 + 47.5 g/L glutaric acid (neutralized)
[33] = strain MG1655 proV::kan, M9 + 47.5 g/L glutaric acid (neutralized)
[34] = strain MG1655 ybjL::kan, M9 + 47.5 g/L glutaric acid (neutralized)
[35] = strain MG1655 ΔkgtP proV::kan, M9 + 47.5 g/L glutaric acid (neutralized)
[36] = strain MG1655 ΔkgtP sspA::kan, M9 + 47.5 g/L glutaric acid (neutralized)
[37] = strain MG1655 ΔkgtP ybjL::kan, M9 + 47.5 g/L glutaric acid (neutralized)
[38] = strain MG1655 ΔkgtP ΔproV ybjL::kan, M9 + 47.5 g/L glutaric acid (neutralized)

For O=C(O)CCCC(=O)O [glutaric acid], the “mean growth rate μ” value [1, 3] was 0.304 h⁻¹, the “mean lag time tlag” value [1, 3] was 5.1 h and the “mean growth rate μ” value [1, 4] was 0.278 h⁻¹. For the same compound, the “mean lag time tlag” value [1, 4] was 4.6 h, the “mean growth rate μ” value [1, 5] was 0.319 h⁻¹ and the “mean lag time tlag” value [1, 5] was 6.4 h. The “mean growth rate μ” value [1, 6] was 0.458 h⁻¹, the “mean lag time tlag” value [1, 6] was 11.3 h and the “mean growth rate μ” value [1, 7] was 0.442 h⁻¹. The “mean lag time tlag” value [1, 7] was 10.8 h, the “mean growth rate μ” value [1, 8] was 0.276 h⁻¹ and the “mean lag time tlag” value [1, 8] was 6.8 h. For the same compound, the “mean growth rate μ” value [1, 9] was 0.298 h⁻¹, the “mean lag time tlag” value [1, 9] was 6.5 h and the “mean growth rate μ” value [1, 10] was 0.378 h⁻¹. For the same compound, the “mean lag time tlag” value [1, 10] was 6.5 h, the “mean growth rate μ” value [1, 11] was 0.284 h⁻¹ and the “mean lag time tlag” value [1, 11] was 5.6 h. For the same compound, the “mean growth rate μ” value [1, 12] was 0.277 h⁻¹, the “mean lag time tlag” value [1, 12] was 5.6 h and the “mean growth rate μ” value [1, 13] was 0.324 h⁻¹. The “mean lag time tlag” value [1, 13] was 8.3 h, the “mean growth rate μ” value [1, 14] was 0.279 h⁻¹ and the “mean lag time tlag” value [1, 14] was 6.2 h. For the same compound, the “mean growth rate μ” value [1, 15] was 0.312 h⁻¹, the “mean lag time tlag” value [1, 15] was 7.1 h and the “mean growth rate μ” value [1, 16] was 0.287 h⁻¹. For the same compound, the “mean lag time tlag” value [1, 16] was 6.6 h, the “mean growth rate μ” value [1, 17] was 0.297 h⁻¹ and the “mean lag time tlag” value [1, 17] was 6.9 h. For the same compound, the “mean growth rate μ” value [1, 18] was 0.438 h⁻¹, the “mean lag time tlag” value [1, 18] was 17.0 h and the “mean growth rate μ” value [1, 19] was 0.349 h⁻¹. The “mean lag time tlag” value [1, 19] was 14.5 h, the “mean growth rate μ” value [1, 20] was 0.277 h⁻¹ and the “mean lag time tlag” value [1, 20] was 5.9 h. For the same compound, the “mean growth rate μ” value [1, 21] was 0.300 h⁻¹, the “mean lag time tlag” value [1, 21] was 6.5 h and the “mean growth rate μ” value [1, 22] was 0.341 h⁻¹. For the same compound, the “mean lag time tlag” value [1, 22] was 6.7 h, the “mean growth rate μ” value [1, 23] was 0.318 h⁻¹ and the “mean lag time tlag” value [1, 23] was 6.6 h. The “mean growth rate μ” value [1, 24] was 0.318 h⁻¹, the “mean lag time tlag” value [1, 24] was 7.1 h and the “mean growth rate μ” value [1, 25] was 0.283 h⁻¹. The “mean lag time tlag” value [1, 25] was 7.8 h, the “mean growth rate μ” value [1, 26] was 0.322 h⁻¹ and the “mean lag time tlag” value [1, 26] was 6.2 h. For the same compound, the “mean growth rate μ” value [1, 27] was 0.347 h⁻¹, the “mean lag time tlag” value [1, 27] was 7.1 h and the “mean growth rate μ” value [1, 28] was 0.402 h⁻¹. For the same compound, the “mean lag time tlag” value [1, 28] was 7.8 h, the “mean growth rate μ” value [1, 29] was 0.345 h⁻¹ and the “mean lag time tlag” value [1, 29] was 7.4 h. The “mean growth rate μ” value [1, 30] was 0.103 h⁻¹, the “mean lag time tlag” value [1, 30] was 10.7 h and the “mean growth rate μ” value [1, 31] was 0.100 h⁻¹. The “mean lag time tlag” value [1, 31] was 10.4 h, the “mean growth rate μ” value [1, 32] was 0.181 h⁻¹ and the “mean lag time tlag” value [1, 32] was 5.8 h. The “mean growth rate μ” value [1, 33] was 0.085 h⁻¹, the “mean lag time tlag” value [1, 33] was 0.6 h and the “mean growth rate μ” value [1, 34] was 0.126 h⁻¹. For the same compound, the “mean lag time tlag” value [1, 34] was 12.8 h, the “mean growth rate μ” value [1, 35] was 0.244 h⁻¹ and the “mean lag time tlag” value [1, 35] was 6.5 h. The “mean growth rate μ” value [1, 36] was 0.256 h⁻¹, the “mean lag time tlag” value [1, 36] was 5.7 h and the “mean growth rate μ” value [1, 37] was 0.213 h⁻¹. For the same compound, the “mean lag time tlag” value [1, 37] was 6.0 h, the “mean growth rate μ” value [1, 38] was 0.300 h⁻¹ and the “mean lag time tlag” value [1, 38] was 7.0 h. For the same compound, the “mean lag time tlag” value ([2]; strain MG1655 ΔkgtP proV::kan) was 13.0 h and the “mean growth rate μ” value ([2]; strain MG1655 ΔkgtP sspA::kan) was 0.225 h⁻¹.
